Common to all, as to type: cell-based, Acinetobacter baumannii
Test [1] deals with A. baumannii 1649. The test can be described thus: MIC assay, strain 1649. The following applies: Acinetobacter baumannii; strain 1649; Tables 1, 3, 4, 5 and footnotes; read-out: 1649 MIC. As to the method: (§1) MIC and MBC assays were performed in this study as documented by us previously.^17,23,24,25 The A. baumannii strains used are detailed in Table 7.
The subject of test [2] is A. baumannii. The test is described as follows: MIC assay, A. baumannii isolates (strain not given). The conditions noted are these: Acinetobacter baumannii; strain not given; read-out: MIC. As to the method: as §1
The subject of test [3] is A. baumannii 1650. The test is described as follows: MIC assay, strain 1650. The following applies: Acinetobacter baumannii; strain 1650; Tables 1, 3, 4, 5 and footnotes; read-out: 1650 MIC. As for the experimental part: as §1
Test [4] deals with A. baumannii 1652. The test is described as follows: MIC assay, strain 1652. The conditions noted are these: Acinetobacter baumannii; strain 1652; Tables 1, 3, 4, 5 and footnotes; read-out: 1652 MIC. As for the experimental part:
as §1

Test [5] relates to A. baumannii 1403. The test is described as follows: MIC assay, strain 1403. The following applies: Acinetobacter baumannii; strain 1403; Tables 1, 3, 4, 5 and footnotes; read-out: 1403 MIC. As to the method: as §1
For test [6], the system named is A. baumannii 1646. The test can be described thus: MIC assay, strain 1646. The following applies: Acinetobacter baumannii; strain 1646; Tables 1, 3, 4, 5 and footnotes; read-out: 1646 MIC. As to the method: as §1
The test system of test [7] is A. baumannii 1651. The test is described as follows: MIC assay, strain 1651. The conditions noted are these: Acinetobacter baumannii; strain 1651; Tables 1, 3, 4, 5 and footnotes; read-out: 1651 MIC. As for the experimental part:
as §1

≈ marks a conversion by molar mass, not a printed value.

One may read the MIC as the lowest concentration that inhibits growth of the organism.

Consider `CNc1nc(NCCc2ccccc2)nc2ccc(OC)cc12` [Compound 18, 6-Methoxy-N^4-methyl-N^2-phenethylquinazoline-2,4-diamine], for which the MIC in test [1] is more than 50 µM; in test [2] it was 2 to 4 µM (≈ 0.617 to 1.23 µg/mL); in test [3], more than 50 µM; in test [4] it was more than 50 µM; in test [5] it was more than 50 µM; in test [6], 4 µM (≈ 1.23 µg/mL). Further, the minimal inhibitory concentration (MIC) in test [7] was more than 50 µM.
For the molecule `CNc1nc(NCCc2ccccc2)nc2ccc(Br)cc12` [Compound 19, 6-Bromo-N^4-methyl-N^2-phenethylquinazoline-2,4-diamine], the MIC in test [1] was more than 50 µM; in test [2], 2 to 4 µM (≈ 0.715 to 1.43 µg/mL); in test [3], more than 50 µM; in test [4] it was more than 50 µM; in test [5], more than 50 µM; in test [6] it was 2 µM (≈ 0.715 µg/mL). For the same molecule, the MIC in test [7] is 10 µM (≈ 3.57 µg/mL).
In the case of `CNc1nc(NCCc2ccccc2)nc2ccc(C)cc12` [Compound 20, N^4,6-Dimethyl-N^2-phenethylquinazoline-2,4-diamine], the MIC in test [1] is more than 50 µM; in test [2], 2 to 4 µM (≈ 0.585 to 1.17 µg/mL); in test [3] it was more than 50 µM; in test [4] it was more than 50 µM; in test [5], more than 50 µM; in test [6], 2 µM (≈ 0.585 µg/mL). Also, in test [7], the minimum inhibitory concentration (MIC) came to 10 µM (≈ 2.92 µg/mL).

The record behind these values is patent US10323007B1, “N2N N4-disubstituted quinazoline-2,4-diamines and uses thereof” (University of South Florida, priority 2016, dated 2019).
